Data published in ChEMBL document CHEMBL3526061, “Glucuronidation of edaravone by human liver and kidney microsomes: biphasic kinetics and identification of UGT1A9 as the major UDP-glucuronosyltransferase isoform” (Drug Metab Dispos, 2012).

Legend:
Type in all cases: ADME
[1] = target: T1, UDP-glucuronosyltransferase 1A7 (Homo sapiens, UniProt Q9HAW7); experiment: Activity of human recombinant UGT1A7 expressed in insect cells assessed as intrinsic clearance for enzyme mediated glucuronidation per mg protein by LC-MS/MS method
T1 sequence (Q9HAW7 whole entry): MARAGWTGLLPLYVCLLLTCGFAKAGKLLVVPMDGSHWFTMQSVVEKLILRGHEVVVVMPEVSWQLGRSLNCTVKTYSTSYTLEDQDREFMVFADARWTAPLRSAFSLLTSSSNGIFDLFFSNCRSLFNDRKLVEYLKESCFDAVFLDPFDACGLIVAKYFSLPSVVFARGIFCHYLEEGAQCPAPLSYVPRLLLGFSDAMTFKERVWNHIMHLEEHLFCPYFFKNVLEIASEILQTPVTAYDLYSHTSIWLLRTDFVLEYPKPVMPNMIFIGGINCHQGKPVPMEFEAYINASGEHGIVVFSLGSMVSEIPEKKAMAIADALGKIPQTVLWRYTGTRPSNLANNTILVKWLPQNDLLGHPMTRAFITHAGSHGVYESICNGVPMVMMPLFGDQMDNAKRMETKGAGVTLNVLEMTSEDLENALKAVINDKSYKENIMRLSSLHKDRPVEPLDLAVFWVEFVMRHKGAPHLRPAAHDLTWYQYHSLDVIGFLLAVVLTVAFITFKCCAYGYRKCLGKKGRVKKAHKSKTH

Liver microsome [2] = experiment: Drug metabolism in human liver microsomes assessed as drug glucuronidation in presence of 50 estradiol by LC-MS/MS method
[3] = Drug metabolism in human kidney microsomes assessed as intrinsic clearance for drug glucuronidation per mg tissue in presence of BSA by LC-MS/MS method
[4] = target: T2, UDP-glucuronosyltransferase 1A9 (Homo sapiens, UniProt O60656); experiment: Activity of human recombinant UGT1A9 expressed in insect cells assessed as enzyme mediated glucuronidation in presence of 100 to 1000 uM propofol by LC-MS/MS method
T2 sequence (O60656 whole entry): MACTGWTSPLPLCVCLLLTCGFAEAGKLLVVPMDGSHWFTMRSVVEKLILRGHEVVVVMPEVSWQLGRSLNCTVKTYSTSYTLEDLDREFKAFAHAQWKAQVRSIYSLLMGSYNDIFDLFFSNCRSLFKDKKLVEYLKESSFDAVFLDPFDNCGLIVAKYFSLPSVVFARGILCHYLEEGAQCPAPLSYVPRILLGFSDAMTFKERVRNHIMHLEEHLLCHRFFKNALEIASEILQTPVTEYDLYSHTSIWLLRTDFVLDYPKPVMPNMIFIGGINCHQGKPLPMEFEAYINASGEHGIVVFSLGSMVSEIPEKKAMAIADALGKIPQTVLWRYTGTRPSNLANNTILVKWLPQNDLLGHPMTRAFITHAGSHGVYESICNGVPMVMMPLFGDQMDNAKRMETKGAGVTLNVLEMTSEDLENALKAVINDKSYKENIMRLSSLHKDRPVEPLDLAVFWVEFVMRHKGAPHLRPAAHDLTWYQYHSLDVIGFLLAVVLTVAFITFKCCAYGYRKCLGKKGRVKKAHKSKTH

[5] = target: T3, UDP-glucuronosyltransferase 2B17 (Homo sapiens, UniProt O75795); experiment: Activity of human recombinant UGT2B17 expressed in insect cells assessed as intrinsic clearance for enzyme mediated glucuronidation per mg protein by LC-MS/MS method
T3 sequence (O75795 whole entry): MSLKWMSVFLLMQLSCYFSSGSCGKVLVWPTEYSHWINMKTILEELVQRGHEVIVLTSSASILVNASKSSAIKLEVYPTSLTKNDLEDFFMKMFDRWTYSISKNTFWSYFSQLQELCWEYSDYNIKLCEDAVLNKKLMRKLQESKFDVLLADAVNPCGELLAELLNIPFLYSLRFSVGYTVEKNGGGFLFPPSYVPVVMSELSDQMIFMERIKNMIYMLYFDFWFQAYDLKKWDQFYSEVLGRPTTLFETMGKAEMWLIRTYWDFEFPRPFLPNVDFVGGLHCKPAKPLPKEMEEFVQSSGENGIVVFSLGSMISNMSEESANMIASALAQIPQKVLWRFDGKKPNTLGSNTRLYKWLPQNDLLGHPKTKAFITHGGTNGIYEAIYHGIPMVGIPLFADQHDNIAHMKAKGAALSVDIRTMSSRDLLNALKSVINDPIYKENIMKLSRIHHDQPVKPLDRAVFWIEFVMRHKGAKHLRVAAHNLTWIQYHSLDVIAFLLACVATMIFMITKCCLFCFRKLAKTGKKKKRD

Liver microsome [6] = experiment: Drug metabolism in human liver microsomes assessed as drug glucuronidation in presence of […] naloxone by LC-MS/MS method
[7] = Drug metabolism in human kidney microsomes assessed as drug glucuronidation per mg tissue in presence of BSA by LC-MS/MS method
[8] = Drug metabolism in human liver microsomes assessed as drug glucuronidation in presence of BSA by LC-MS/MS method
[9] = Drug metabolism in human kidney microsomes assessed as drug glucuronidation in presence of […] naloxone by LC-MS/MS method
[10] = target: T4, UDP-glucuronosyltransferase 1A3 (Homo sapiens, UniProt P35503); experiment: Activity of human recombinant UGT1A3 expressed in insect cells assessed as enzyme mediated glucuronidation at 500 uM by LC-MS/MS method
T4 sequence (P35503 whole entry): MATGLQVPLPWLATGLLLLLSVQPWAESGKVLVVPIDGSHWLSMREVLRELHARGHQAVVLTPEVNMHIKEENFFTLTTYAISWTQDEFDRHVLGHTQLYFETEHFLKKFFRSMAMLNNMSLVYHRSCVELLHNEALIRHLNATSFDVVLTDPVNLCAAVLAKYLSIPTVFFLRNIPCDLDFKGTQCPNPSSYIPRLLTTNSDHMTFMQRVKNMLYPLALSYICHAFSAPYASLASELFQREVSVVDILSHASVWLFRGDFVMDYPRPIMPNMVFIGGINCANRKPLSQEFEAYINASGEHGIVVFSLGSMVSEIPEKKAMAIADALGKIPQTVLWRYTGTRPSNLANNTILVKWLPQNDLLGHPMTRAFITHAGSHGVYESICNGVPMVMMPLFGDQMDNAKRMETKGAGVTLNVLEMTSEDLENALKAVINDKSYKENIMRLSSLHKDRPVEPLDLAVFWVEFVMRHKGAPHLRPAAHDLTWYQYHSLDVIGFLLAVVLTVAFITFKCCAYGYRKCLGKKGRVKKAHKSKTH

[11] = target: T2, UDP-glucuronosyltransferase 1A9; experiment: Activity of human recombinant UGT1A9 expressed in insect cells assessed as enzyme mediated glucuronidation by LC-MS/MS method

CC1=NN(c2ccccc2)C(=O)C1 [EDARAVONE]
CL [1]: 1.7 µL/min/g | Drug metabolism (Liver microsome [2]): metabolite_not_detected | CL(high) [3]: 78.5 µL/min/mg | CL(low) [3]: 3.6 µL/min/mg | Drug metabolism [4]: metabolite_not_detected | CL [5]: 3.3 µL/min/g | Drug metabolism (Liver microsome [6]): metabolite_detected | VmaxH [7]: 696 pmol/min/g | VmaxL [7]: 5265 pmol/min/g | Km ([8]; read-out: KmH): 8.4 µM | Km ([8]; read-out: KmL): 1350 µM | Drug metabolism [9]: metabolite_detected | Drug metabolism [10]: metabolite_detected | KmH [11]: 6 µM | KmL [11]: 419.4 µM
